Reference: patent publication US9078868B2, “Therapeutic agent for accelerating recovery of animal under medical treatment” (UNIVERSITY OF MIYAZAKI, priority 2010, dated 2015)
No end group written: not given here. *: point of attachment. Octanoyl = CCCCCCCC(=O)*

Tested on: hospitalized animals (canines and felines) with poor physical conditions
Assay: Example 3-1: repeated dose of ghrelin (analyzed together with single dose animals), compiled by disease group
Format: in vivo
Design: key to Degree of anger or anxiety score after administration: 1 = calm/accustomed to staff … 5 = too violent to touch, bites
Settings: for Activity (vigor) score after administration: scale 1-7; for Body temperature after administration: before administration 39.8° C.
Description: In these Examples, a canine-derived ghrelin (a peptide compound in which a side chain hydroxyl group of the serine residue at the 3rd position from the amino terminus is acylated with an n-octanoyl group in SEQ ID NO: 1) was used as ghrelin. The canine-derived ghrelin was chemically synthesized and then lyophilized, and a canine-derived ghrelin for administration containing 0.1, 0.3, 0.5, or 1 mg per vial of a canine-derived ghrelin was prepared.
To administer ghrelin to animals, the canine-derived ghrelin was dissolved to a concentration of 1 mg/2 mL in physiological saline and intravenously, subcutaneously, or intramuscularly injected after the dose was adjusted depending on the body weight.
The evaluation parameters used were activity (vigor), body temperature, hematology parameters (blood cell test values), serum biochemistry parameters (biochemical test values), the degree of anger or anxiety, and respiratory rate. […] The degree of anger or anxiety of an animal observed visually by an observer were also evaluated using the following criteria: 1. calm and accustomed to a health care professional, 2. able to be touched by but unaccustomed to a health care professional and restless, 3. wandering around or hiding in the kennel with anxiety, 4. able to be barely touched, and 5. too violent to be touched by a health care professional and tends to bite.
A canine-derived ghrelin was repeatedly administered intravenously or subcutaneously to each of the animals with poor physical conditions. The dose of intravenous administration was approximately 5 μg/kg or 10 μg/kg, and the dose of subcutaneous administration was approximately 100 μg/kg. The mean number of doses in repeated administration was approximately four times, and the maximum number of doses was 11 times. The administration period was one to six days.
Evaluation parameters evaluated before and after administration of ghrelin were appetite, quantity of meal, biochemical test values (GOT, GPT, BUN, CRE, CPK, CRP), blood cell test values (white blood cell [WBC], platelet [PLT]), body temperature, activity (vigor), skin, coat, wellness, the degree of anger or anxiety, respiratory rate, and others. These parameters were analyzed together with the results of the animals receiving a single dose (Examples 1 and 2). The analysis results were compiled by disease, such as renal dysfunction, tumor, fracture, and accident (see Table 3-1). Statistical analysis of values before and after administration was performed using a paired t-test.

[1] = infection or parasitism, 15 animals, single or repeated dose
[2] = infection or parasitism, *p < 0.05, **p < 0.01
[3] = inflammatory disease, 13 animals, single or repeated dose
[4] = inflammatory disease, *p < 0.05, **p < 0.01
[5] = renal dysfunction, 10 animals, single or repeated dose
[6] = renal dysfunction, *p < 0.05, **p < 0.01
[7] = tumor, 14 animals, single or repeated dose

In the case of “GSS (n-octanoyl) FLSPEHQKLQQRKESKKPPAKLQPR (GSS(Octanoyl)FLSPEHQKLQQRKESKKPPAKLQPR; listed as Canis familiaris) [ghrelin, chemically synthesized, lyophilized]”, the “Respiratory rate: animals improved/animals evaluated” value [1] is reported as 3/3, the “Vigor: animals improved/animals evaluated” value [1] is reported as 10/11 and the “WBC: animals improved/animals evaluated” value [1] is reported as 1/4. The “BUN: change after vs before administration (t-test)” value [2] was “Decreased*”, the “Respiratory rate: change after vs before administration (t-test)” value [2] was “Improved*” and the “Vigor: change after vs before administration (t-test)” value (from here on “Vigor: change”) [2] was “Improved**”. For the same substance, the “BUN value after administration” value (infections and parasitism, before administration 23.4 mg/dL) was 16.4 mg/dL, the “Respiratory rate after administration” value (infections and parasitism, before administration 100/min) was 70 min⁻¹ and the “Activity (vigor) score after administration” value (“Activity (vigor) score” for short) (infections and parasitism, example, before administration a score of 1) was 3. For the same substance, the “BUN: animals improved/animals evaluated” value [3] was 4/4, the “Body temperature: animals improved/animals evaluated” value [3] was 5/6 and the “CPK: animals improved/animals evaluated” value [3] was 1/1. The “CRE: animals improved/animals evaluated” value [3] was 0/2, the “CRP: animals improved/animals evaluated” value [3] was 1/2 and the “Degree of anger: animals improved/animals evaluated” value [3] was 2/5. For the same substance, the “GOT: animals improved/animals evaluated” value [3] was 3/4, the “GPT: animals improved/animals evaluated” value [3] was 4/4 and the “PLT: animals improved/animals evaluated” value [3] was 2/4. The “Vigor: animals improved/animals evaluated” value [3] was 9/9, the “WBC: animals improved/animals evaluated” value [3] was 3/4 and the “Respiratory rate: animals improved/animals evaluated” value (inflammatory disease, 13 animals, single or repeated dose, #respiratory rate was stabilized in 2 of 2 animals) was 2/2#. For the same substance, the “BUN: change after vs before administration (t-test)” value [4] was “Decreased*”, the “Body temperature: change after vs before administration (t-test)” value [4] was “Decreased*” and the “GOT: change after vs before administration (t-test)” value [4] was “Decreased*”. For the same substance, the “GPT: change after vs before administration (t-test)” value [4] was “Decreased*”, the “Vigor: change” value [4] was “Improved*” and the “BUN value after administration” value (inflammatory diseases, before administration 18.6 mg/dL) was 10.7 mg/dL. The “Body temperature after administration” value (inflammatory diseases) was 38.7 °C, the “GOT value after administration” value (inflammatory diseases, before administration 149 IU/L) was 25.0 IU/L and the “GPT value after administration” value (inflammatory diseases, before administration 1000 IU/L) was 282 IU/L. The “Activity (vigor) score” value (inflammatory diseases, example, before administration a score of 1) was 3, the “BUN: animals improved/animals evaluated” value [5] was 2/3 and the “Body temperature: animals improved/animals evaluated” value [5] was 2/2. For the same substance, the “CRE: animals improved/animals evaluated” value [5] was 3/3, the “Degree of anger: animals improved/animals evaluated” value [5] was 1/3 and the “GOT: animals improved/animals evaluated” value [5] was 0/1. For the same substance, the “GPT: animals improved/animals evaluated” value [5] was 1/1, the “PLT: animals improved/animals evaluated” value [5] was 4/5 and the “Respiratory rate: animals improved/animals evaluated” value [5] was 1/1. For the same substance, the “Vigor: animals improved/animals evaluated” value [5] was 5/6, the “WBC: animals improved/animals evaluated” value [5] was 5/5 and the “CRE: change after vs before administration (t-test)” value [6] was “Decreased*”. The “PLT: change after vs before administration (t-test)” value [6] was “Increased**”, the “Vigor: change” value [6] was “Improved**” and the “WBC: change after vs before administration (t-test)” value [6] was “Decreased*”. The “Serum creatinine (CRE) value after administration” value (renal dysfunctions, before administration 3.2 mg/dL) was 1.3 mg/dL, the “White blood cell (WBC) count after administration” value (renal dysfunctions, before administration 324×10^2/μL) was 13900 µL⁻¹ and the “Activity (vigor) score” value (renal dysfunctions, example, before administration a score of 2) was 3. The “BUN: animals improved/animals evaluated” value [7] was 2/4, the “Body temperature: animals improved/animals evaluated” value [7] was 6/6 and the “CRE: animals improved/animals evaluated” value [7] was 2/4. For the same substance, the “CRP: animals improved/animals evaluated” value [7] was 2/2, the “Degree of anger: animals improved/animals evaluated” value [7] was 4/6 and the “GOT: animals improved/animals evaluated” value [7] was 3/5. For the same substance, the “GPT: animals improved/animals evaluated” value [7] was 4/6, the “PLT: animals improved/animals evaluated” value [7] was 3/6 and the “Respiratory rate: animals improved/animals evaluated” value [7] was 1/1. The “Vigor: animals improved/animals evaluated” value [7] was 7/8, the “WBC: animals improved/animals evaluated” value [7] was 3/6 and the “Body temperature: change after vs before administration (t-test)” value (tumor, *p < 0.05, **p < 0.01) was “Decreased*”. The “Degree of anger: change after vs before administration (t-test)” value (tumor, *p < 0.05, **p < 0.01) was “Improved*”, the “Vigor: change” value (tumor, *p < 0.05, **p < 0.01) was “Improved*” and the “Body temperature after administration” value (tumors) was 38.6 °C. For the same substance, the “Activity (vigor) score” value (tumors, example, before administration a score of 3) was 6 and the “Degree of anger or anxiety score after administration” value (tumors, example, before administration a score of 5, scale 1-5) was 2.
